Data on 4 compounds can be found in patent US12030906B2, “Crystalline forms of (s)-2-ethylbutyl 2-(((s)-(((2r,3s,4r,5r)-5-(4-aminopyrrolo[2,1-f] [1,2,4]triazin-7-yl)-5-cyano-3,4-dihydroxytetrahydrofuran-2-yl)methoxy) (phenoxy) phosphoryl)amino)propanoate” (priority 2017, dated 2024).

Like-named read-outs stand apart in the source and are kept apart here.

Series [1] is described as follows: Competition experiment between Formula I Form I and Formula I Form II in isopropyl acetate. It counts as physicochemical. The conditions noted are these: Experiment 26; Form I 11 mg + Mixture II 55.4 mg in IPAc 889 mg; 75 mg/g; suspension. The procedure: A competition experiment between Formula I Form I and Formula I Form II was conducted by mixing Formula I Form I with isopropyl acetate, followed by adding Mixture II, a mixture of Formula I Form II and Formula I Form IV.

The format of series [2] is physicochemical. The conditions noted are these: for XRPD: room temperature, two weeks.
A short description of series [3]: Competition experiment between Formula I Form II and Formula I Form IV in IPA/Water at 50° C. It counts as physicochemical.
The mark [4] stands for this setting: Experiment 023, wt % water 9.3, 1 day in suspension, Temp. 50.
Where [5] appears, read: Experiment 030, wt % water 4.9, 1, 3 days in suspension, Temp. 50.
Setting [6] is: Experiment 033, wt % water 39.5, 3 days in suspension, Temp. 50.
The mark [7] stands for this setting: Experiment 034, wt % water 49.9, 1, 3 days in suspension, Temp. 50.

With `CCC(CC)COC(=O)[C@H](C)N[P@](=O)(OC[C@H]1O[C@@](C#N)(c2ccc3c(N)ncnn23)[C@H](O)[C@@H]1O)Oc1ccccc1` [Formula I Form I, (S)-2-ethylbutyl 2-(((S)-(((2R,3S,4R,5R)-5-(4-aminopyrrolo[2,1-f][1,2,4]triazin-7-yl)-5-cyano-3,4-dihydroxytetrahydrofuran-2-yl)methoxy)(phenoxy)phosphoryl)amino)propanoate], the “Comment (form conversion)” value in series [1] is recorded as “Form II in 1 day”.

Turning to `CCC(CC)COC(=O)[C@H](C)N[P@](=O)(OC[C@H]1O[C@@](C#N)(c2ccc3c(N)ncnn23)[C@H](O)[C@@H]1O)Oc1ccccc1` [Formula I Form II, (S)-2-ethylbutyl 2-(((S)-(((2R,3S,4R,5R)-5-(4-aminopyrrolo[2,1-f][1,2,4]triazin-7-yl)-5-cyano-3,4-dihydroxytetrahydrofuran-2-yl)methoxy)(phenoxy)phosphoryl)amino)propanoate], the more stable form result in series [2] (several competition experiments) is on record as “more stable form”.

With `CCC(CC)COC(=O)[C@H](C)N[P@](=O)(OC[C@H]1O[C@@](C#N)(c2ccc3c(N)ncnn23)[C@H](O)[C@@H]1O)Oc1ccccc1` [Formula I Mixture II, (S)-2-ethylbutyl 2-(((S)-(((2R,3S,4R,5R)-5-(4-aminopyrrolo[2,1-f][1,2,4]triazin-7-yl)-5-cyano-3,4-dihydroxytetrahydrofuran-2-yl)methoxy)(phenoxy)phosphoryl)amino)propanoate], the “Comment (form conversion)” value in series [1] is “Form II in 1 day”. Moreover, the DSC entry in series [3] (setting [4]) was “Form II”; in series [3] (setting [5]) it was “Form II”; in series [3] (setting [6]), “Form II”; in series [3] (setting [7]), “Form II”; in series [3] (Experiment 037, wt % water 0.93, 2 days in suspension, Temp. 50, 22) it was “Form II”. Also, the XRPD entry in series [3] (setting [4]), in series [3] (setting [5]), in series [3] (setting [6]) and in series [3] (setting [7]) was “Form II” throughout. In series [3] (IPA/Water (3/6 V/V) at 50° C. for several days, all experiments), the conversion of form result is on record as “conversion to Formula I Form II”.

On to `CCC(CC)COC(=O)[C@H](C)N[P@](=O)(OC[C@H]1O[C@@](C#N)(c2ccc3c(N)ncnn23)[C@H](O)[C@@H]1O)Oc1ccccc1` [Formula I, (S)-2-ethylbutyl 2-(((S)-(((2R,3S,4R,5R)-5-(4-aminopyrrolo[2,1-f][1,2,4]triazin-7-yl)-5-cyano-3,4-dihydroxytetrahydrofuran-2-yl)methoxy)(phenoxy)phosphoryl)amino)propanoate], for which the XRPD entry in series [2] (Experiment 12, 1-propanol) is recorded as “Partially converted to Form II”; in series [2] (Experiment 14, THF) it was “Partially converted to Form II”; in series [2] (Experiment 16, 2-propanol), “Partially converted to Form II”; in series [2] (Experiment 18, ACN), “Form II”; in series [2] (Experiment 20, DCM), “Partially converted to Form II”; in series [2] (Experiment 22, Ethanol) it was “Form II”. Also, the XRPD result in series [2] (Experiment 24, MTBE) is listed as “Partially converted to Form II”; in series [2] (Experiment 26, 2MeTHF) it was “Partially converted to Form II”; in series [2] (Experiment 28, EtOAc/water), “Form II”; in series [2] (Experiment 30, MEK) it was “Form II”; in series [2] (Experiment 32, Ethanol/water aw 0.4) it was “Form II”.
